Data reported in patent EP2364976B1, “S1P receptor modulating compounds and use thereof” (EPIX Pharmaceuticals, Inc., priority 2007, dated 2007).
Values joined by “and” are separate entries in the source; they are usually repeats but may differ in a detail not shown here. Equal values may be shown once.

biological target: T1, hS1P1 (Homo sapiens, UniProt P21453); assay: hS1P1 EC50 (S1P receptor Ca2+ flux protocol, FLIPR, CHO K1 Gqi5 cells); type: cell-based; conditions: several values per compound = repeat determinations as printed
T1 construct: expressed in transfected cells
Protocol: S1P receptor activity may also be measured by an SIP receptor (e.g., hS1P1, hS1P3, rS1P1, rS1P3 and parental cell) Ca^2+ Flux protocol as described below: • 1. Material • a. FLIPR buffer: 1x HBSS; 10mM HEPES • b. Cell growth media: • i. human and rat S1P1 and S1P3: F12-Ham's media; 10% FBS (qualified); 1x Pen/Strep/Glu; 300ug/mL Hygromycin; 400ug/mL Geneticin ii. Parental cell: human and rat S1P and S1P3: F12-Ham's media; 10% FBS (qualified); 1x Pen/Strep/Glu; 300ug/mL Hygromycin; • c. Cell seeding media; F12-Ham's media; 10% FBS (Charcoal/dextran stripped); 1x Pen/Strep/Glu; • d. Cell dissociation buffer: Versene from Invitrogen • e. Agonist (SIP) dissolving buffer: 0.4% (w/v) fatty-acid free BSA (Sigma # A8806) in FLIPR buffer • f. FLIPR dye: BD PBX Calcium assay kit; Cat#641077 is composed of Calcium indicator (Cat#850000) and 100x PBX signal enhancer (cat#850001). The 100x PBX signal enhancer is diluted into FLIPR buffer 1:100 and the calcium indicator is then added at 1:1000 ratio. • g. Cell plates (96-well): Greiner Cat#655090 • h. Compound plates (96-well): Costar #3365 • i. S1P stock solution preparation: S1P is purchased from CalBioChem (Catalog # 970471; 1mg vial; custom prep using methanol, & nitrogen gas drying inside glass vial; Storage @ -20°C). Dissolve 1 vial of SIP into 26.4ml of agonist dissolving buffer in a 50ml centrifuge tube; Remove label from bottle of SIP, open and drop entire bottle into tube. Sonicate at 37° for ½ hour. Clear solution of 100µM will result. This stock solution is aliquoted and stored at -80C • 2. Cell line maintenance • a. V5 tags were added at the N-terminus of hS1P1, hS1P3, rS1P1 and rS1P3. All four genes were transfected into CHO K1 cells which stably express Gqi5. • b. hS1P1 and hS1P3 were established as stable clones and rS1P1 and rS1P3 were sorted by anti V5 tag and established as stable pools after sorting. • c. Parental cell line CHO/K1 Gqi5 is used as the control. • d. All the cells are maintained in cell growth media and splitted twice a week using Versene. • e. All the cell lines are used under passage 30. • 3. Assay protocol • a. Cell seeding: Cells are lifted from the flask by Versene and seeded in cell plates at 50K/well in cell seeding media. Cells are grown overnight at 37 degree. • b. Cell loading: Cell seeding media is discarded. Cells are loaded with 50ul of FLIPR dye at RT for 90 min. Signal is stable for up to 5 h after dye loading. • c. Agonist (S1P) preparation: Frozen stock of S1P is thawed out and sonicated at 37c for 30 minutes every time before use. The stock is then diluted into FLIPR buffer at proper concentration. • d. Compound preparation: Compounds are dissolved in DMSO. A 3x, 10 point dilution of the compounds are carried out in DMSO. Then the compounds are diluted into assay buffer133x so that the DMSO concentration is 0.75%. • e. Activity measurement: The fluorescence signal change of the cells upon compound addition is monitored in FLIPRtetra. 25ul of compound is transferred into the cell plates (50ul of FLIPR dye; DMSO concentration: 0.25%). Signal is recorded for 90sec after compound addition. Then 50ul of 500nM SIP is added in the cell plate, and signal is recorded for 90 seconds upon addition. • 4. Data analysis • a. Peak value is calculated for each compound/S1P addition • b. The peak value of S1P at 200nM is used as high control (100%), and the peak value of buffer only is used as low control (0%). • c. Data is normalized against high and low controls using the following equation: POC_S = 100*(RAW-LO)/(HI-LO) [formula] • d. Peak value is plotted against the concentration of compound. • e. Curve is fitted using the 4 parameter fit: Y = (A+(B/(1+(((x/C))^(∧)D)))) [formula] where: Y is POC_S (or POC) • X is compound concentration • A is the minimum (EC50min or IC50min) • B is the maxmum (EC50max or IC50max) • C is the inflection point (EC50IP or IC50IP) • D is the hill slope (EC50 slope or IC50 slope).

T1 sequence (P21453 whole entry): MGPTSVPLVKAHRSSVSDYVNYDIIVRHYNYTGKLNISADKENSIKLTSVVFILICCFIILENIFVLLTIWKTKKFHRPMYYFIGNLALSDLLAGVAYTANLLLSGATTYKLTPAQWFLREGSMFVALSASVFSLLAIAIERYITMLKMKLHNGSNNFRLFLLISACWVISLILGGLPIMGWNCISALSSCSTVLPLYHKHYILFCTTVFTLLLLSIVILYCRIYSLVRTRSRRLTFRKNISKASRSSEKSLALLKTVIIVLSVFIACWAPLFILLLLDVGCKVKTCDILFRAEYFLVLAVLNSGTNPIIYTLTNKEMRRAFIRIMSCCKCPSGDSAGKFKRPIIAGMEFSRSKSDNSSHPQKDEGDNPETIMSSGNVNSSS

| SMILES | EC50 |
| --- | --- |
| O=C(O)C1CN(Cc2ccc(-c3cc4cc(-c5cccnc5)ccc4o3)cc2)C1 [Reference Compound 12, 1-(4-(5-(pyridin-3-yl)benzofuran-2-yl)benzyl)azetidine-3-carboxylic acid] | 3600 nM |
| CC(C)Cc1ccc2oc(-c3ccc(CN4CCC(C(=O)O)CC4)cc3)cc2c1 [Reference Compound 13, 1-(4-(5-isobutylbenzofuran-2yl)benzyl)piperidine-4-carboxylic acid] | 1700 nM |
| O=C(O)C1CN(Cc2ccc(-c3cc4cc(Cc5ccccc5)ccc4o3)cc2F)C1 [Reference Compound 14, 1-((4-(5-Benzylbenzofuran-2-yl)2-fluorophenyl)methyl)azetidine-3-carboxylic acid] | 620 nM and 334 nM |
| O=C(O)C1CN(Cc2ccc(-c3cc4cc(Cc5ccccc5)ccc4o3)c(F)c2)C1 [Reference Compound 15, 1-((4-(5-Benzylbenzofuran-2-yl)-3-fluorophenyl)methyl)azetidine-3-carboxylic acid] | 160 nM and 38 nM |
| CCCCOc1ccc2oc(-c3ccc(CN4CCC(C(=O)O)CC4)cc3)cc2c1 [Reference Compound 16] | 17000 nM |
| O=C(O)C1CN(Cc2ccc(-c3cc4cc(C5CCCCC5)ccc4o3)nc2)C1 [Reference Compound 17, 1-((6-(5-cyclohexylbenzofuran-2-yl)pyridin-3-yl)methyl)azetidine-3-carboxylic acid] | 720 nM and 302 nM |
| Cc1cccc(-c2ccc3oc(-c4ccc(CN5CC(C(=O)O)C5)cc4)cc3c2)n1 [Reference Compound 18, 1-(4-(5-(6-methylpyridin-2-yl)benzofuran-2-yl)benzyl)azetidine-3-carboxylic acid] | 2900 nM |
| O=C(O)C1CN(Cc2ccc(-c3cc4cc(Oc5ccccc5)ccc4o3)cc2)C1 [Reference Compound 19, 1-(4-(5-phenoxybenzofuran-2-yl)benzyl)azetidine-3-carboxylic acid] | 510 nM and 92 nM |
| CC(C)CCc1ccc2oc(-c3ccc(CN4CC(C(=O)O)C4)cc3)cc2c1 [Reference Compound 20, 1-((4-(5-Isopentylbenzofuran-2-yl)phenyl)methyl)azetidine-3-carboxylic acid] | 630 nM |
| CCCCOc1ccc2cc(-c3ccc(CN4CC(C(=O)O)C4)cc3)oc2c1 [Reference Compound 21, 1-((4-(6-Butoxybenzofuran-2-yl)phenyl)methyl)azetidine-3-carboxylic acid] | 2000 nM |
| CCCCOc1ccc2oc(-c3ccc(CN4CC(C(=O)O)C4)cc3OC)cc2c1 [Reference Compound 24] | 420 nM and 700 nM |
| CCCCOc1ccc2oc(-c3ccc(CN4CC(C(=O)O)C4)s3)cc2c1 [Reference Compound 25, 1-((5-(5-butoxybenzofuran-2-yl)thiophen-2-yl)methyl)azetidine-3-carboxylic acid] | 1600 nM |
| O=C(O)C1CN(Cc2ccc(-c3cc4cc(C5CCCCC5)ccc4o3)c(F)c2)C1 [Reference Compound 27] | 160 nM and 361 nM |
| O=C(O)C1CN(Cc2ccc(-c3cc4cc(-c5cccs5)ccc4o3)cc2)C1 [Reference Compound 28, 1-((4-(5-(thiophen-2-yl)benzofuran-2-yl)phenyl)methyl)azetidine-3-carboxylic acid] | 1800 nM |
| O=C(O)CCN1CCc2cc(-c3cc4cc(Cc5ccccc5)ccc4o3)ccc2C1 [Reference Compound 29, 3-(6-(5-benzylbenzofuran-2-yl)-3,4-dihydroisoquinolin-2(1H)-yl)propanoic acid] | 160 nM and 261 nM |
| O=C(O)C1CN(Cc2ccc(-c3cc4cc(C5CCCC5)ccc4o3)cc2)C1 [Reference Compound 30, 1-(4-(5-cyclopentylbenzofuran-2-yl)benzyl)azetidine-3-carboxylic acid] | 210 nM |
| O=C(O)C1CN(Cc2ccc(-c3cc4cc(N5CCCCC5)ccc4o3)c(F)c2)C1 [Reference Compound 31, 1-(3-fluoro-4-(5-(piperidin-1-yl)benzofuran-2-yl)benzyl)azetidine-3-carboxylic acid] | 860 nM and 307 nM |
| O=C(O)C1CN(Cc2ccc(-c3cc4cc(Cc5ccccc5)ccc4o3)nc2)C1 [Reference Compound 32, 1-((6-(5-benzylbenzofuran-2-yl)pyridin-3-yl)methyl)azetidine-3-carboxylic acid] | 2600 nM and 516 nM |
| COc1cc(CN2CC(C(=O)O)C2)ccc1-c1cc2cc(Cc3ccccc3)ccc2o1 [Reference Compound 33, 1-((4-(5-benzylbenzofuran-2-yl)-3-methoxyphenyl)methyl)azetidine-3-carboxylic acid] | 1000 nM and 1900 nM and 196 nM |
| O=C(O)C1CN(Cc2ccc(-c3cc4cc(N5CCCCC5)ccc4o3)cc2)C1 [Reference Compound 34, 1-(4-(5-(piperidin-1-yl)benzofuran-2-yl)benzyl)azetidine-3-carboxylic acid] | 1500 nM |
| O=C(O)C1CN(Cc2ccc(-c3cc4cc(Cc5ccccc5)ccc4o3)c(Cl)c2)C1 [Reference Compound 36, 1-((4-(5-benzylbenzofuran-2-yl)-3-chlorophenyl)methyl)azetidine-3-carboxylic acid] | 199 nM |
| O=C(O)CCN1CCc2cc(-c3cc4cc(C5CCCC5)ccc4o3)ccc2C1 [Reference Compound 37, 3-(6-(5-cyclopentylbenzofuran-2-yl)-3,4-dihydroisoquinolin-2(1H)-yl)propanoic acid] | 4170 nM |
| O=C(O)C1CN(Cc2ccc(-c3cc4cc(OCC5CCCC5)ccc4o3)c(F)c2)C1 [Reference Compound 38, 1-(4-(5-(cyclopentylmethoxy)benzofuran-2-yl)-3-fluorobenzyl)azetidine-3-carboxylic acid] | 803 nM |
| Cc1cc(CN2CC(C(=O)O)C2)ccc1-c1cc2cc(Cc3ccccc3)ccc2o1 [Reference Compound 43, 1-((4-(5-Benzylbenzofuran-2-yl)-3-methylphenyl)methyl)azetidine-3-carboxylic acid] | 241 nM |
| CCCCOc1ccc2oc(-c3ccc4c(c3)CCN(CCC(=O)O)C4)cc2c1 [Reference Compound 44, 3-(6-(5-butoxybenzofuran-2-yl)-3,4-dihydroisoquinolin-2(1H)-yl)propanoic acid] | 4440 nM |
| O=C(O)CCNC1Cc2ccc(-c3cc4cc(Cc5ccccc5)ccc4o3)cc2C1 (centres unmarked) [Reference Compound 45, 3-(5-(5-benzylbenzofuran-2-yl)-2,3-dihydro-1H-inden-2-ylamino)-propanoic acid] | 807 nM |
| COc1cc(CN2CC(C(=O)O)C2)ccc1-c1cc2cc(C3CCCC3)ccc2o1 [Reference Compound 47, 1-((4-(5-cyclopentylbenzofuran-2-yl)-3-methoxyphenyl)methyl)azetidine-3-carboxylic acid] | 1070 nM |
| O=C(O)C1CN(Cc2cc(F)c(-c3cc4cc(Cc5ccccc5)ccc4o3)c(F)c2)C1 [Reference Compound 48, 1-((4-(5-Benzylbenzofuran-2-yl)-3,5-difluorophenyl)methyl)azetidine-3-carboxylic acid] | 89 nM |
| O=C(O)C1CN(Cc2ccc(-c3cc4cc(OCC5CC5)ccc4o3)c(F)c2)C1 [Reference Compound 49] | 109 nM |
